Results published in US9783536B2, “Nitrogen-containing heterocyclic compound or salt thereof” (FUJIFILM Corporation, priority 2013, dated 2017).
Structures can show the parent of a compound that is named as a salt. Where two headings read alike, the source gives them in different places.

Legend:
human PI3Kα protein = molecular target: T1, human PI3Kα protein (Homo sapiens, UniProt P42336); test: PI3Kα enzyme assay (ADP-Glo); format: biochemical; conditions: read-out: PI3Kα enzyme inhibitory activity
T1 construct: purchased Carna Biosciences, Inc; host or cells: baculovirus expression system
T1 sequence (P42336 whole entry): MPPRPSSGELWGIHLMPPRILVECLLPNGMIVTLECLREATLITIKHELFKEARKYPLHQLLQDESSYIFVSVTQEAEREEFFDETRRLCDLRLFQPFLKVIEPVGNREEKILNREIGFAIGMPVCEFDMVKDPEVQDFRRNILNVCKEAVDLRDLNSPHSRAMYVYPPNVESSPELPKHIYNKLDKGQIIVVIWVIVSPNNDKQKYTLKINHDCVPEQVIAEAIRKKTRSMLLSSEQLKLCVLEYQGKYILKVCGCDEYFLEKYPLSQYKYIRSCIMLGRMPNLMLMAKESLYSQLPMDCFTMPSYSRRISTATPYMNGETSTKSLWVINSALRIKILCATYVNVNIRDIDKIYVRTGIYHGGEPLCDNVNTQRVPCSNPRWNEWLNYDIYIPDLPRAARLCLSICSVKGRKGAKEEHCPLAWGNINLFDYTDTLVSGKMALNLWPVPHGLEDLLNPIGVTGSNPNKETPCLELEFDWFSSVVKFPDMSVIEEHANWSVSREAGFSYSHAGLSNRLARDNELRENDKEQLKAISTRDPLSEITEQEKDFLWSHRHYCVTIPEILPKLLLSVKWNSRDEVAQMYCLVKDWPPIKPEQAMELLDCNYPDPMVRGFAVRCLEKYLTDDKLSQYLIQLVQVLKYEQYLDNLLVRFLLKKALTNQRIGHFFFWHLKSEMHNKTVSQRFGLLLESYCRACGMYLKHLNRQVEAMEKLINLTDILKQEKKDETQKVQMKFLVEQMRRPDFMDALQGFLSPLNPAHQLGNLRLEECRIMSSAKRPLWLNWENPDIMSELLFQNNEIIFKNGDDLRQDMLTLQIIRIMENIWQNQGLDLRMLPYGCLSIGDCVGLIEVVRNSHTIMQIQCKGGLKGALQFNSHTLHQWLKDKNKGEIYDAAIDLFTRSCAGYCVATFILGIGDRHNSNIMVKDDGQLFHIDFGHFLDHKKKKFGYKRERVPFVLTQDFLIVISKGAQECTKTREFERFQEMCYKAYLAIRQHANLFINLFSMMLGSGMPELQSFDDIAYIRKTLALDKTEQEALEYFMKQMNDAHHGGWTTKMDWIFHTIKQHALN
T1 sequence (P27986 whole entry partner): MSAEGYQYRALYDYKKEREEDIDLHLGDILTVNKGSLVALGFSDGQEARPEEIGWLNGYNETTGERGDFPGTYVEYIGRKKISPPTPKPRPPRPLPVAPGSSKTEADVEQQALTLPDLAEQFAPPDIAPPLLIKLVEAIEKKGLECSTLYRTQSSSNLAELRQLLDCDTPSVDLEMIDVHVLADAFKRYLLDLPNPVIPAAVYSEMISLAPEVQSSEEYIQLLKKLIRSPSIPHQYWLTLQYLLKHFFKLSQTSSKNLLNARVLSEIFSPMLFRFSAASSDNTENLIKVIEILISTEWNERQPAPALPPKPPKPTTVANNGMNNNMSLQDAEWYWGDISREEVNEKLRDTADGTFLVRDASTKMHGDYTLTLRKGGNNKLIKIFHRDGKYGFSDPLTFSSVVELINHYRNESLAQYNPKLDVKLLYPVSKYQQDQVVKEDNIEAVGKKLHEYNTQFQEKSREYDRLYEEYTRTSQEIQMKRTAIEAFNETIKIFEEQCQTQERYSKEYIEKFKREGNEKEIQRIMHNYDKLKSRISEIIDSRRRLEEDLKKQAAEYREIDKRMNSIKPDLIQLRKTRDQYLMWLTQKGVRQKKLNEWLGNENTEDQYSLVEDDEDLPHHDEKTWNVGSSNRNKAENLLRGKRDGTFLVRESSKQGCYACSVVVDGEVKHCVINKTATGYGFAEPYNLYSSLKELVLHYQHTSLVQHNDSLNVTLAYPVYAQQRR
Protocol: In a PI3Kα enzyme assay, a product (manufactured by Carna Biosciences, Inc.) obtained by biotinylating a human PI3Kα protein produced by using a baculovirus expression system was used. In addition, in the detection of enzyme activity, ADP-GLO KINASE ASSAY (trade name, manufactured by PROMEGA Corporation) was used.
10 μL of a reaction liquid (4.5 nmol/L PI3Kα, 40 mmol/L Tris-HCl, 20 mmol/L MgCl2, 0.1% BSA, pH 7.5) including the human PI3Kα protein and a test compound having a predetermined concentration was allowed to stand at room temperature for 15 minutes. Then, 5 μL of a mixture liquid of L-α-phosphatidylinositol 4,5-diphosphate (PIP2) (manufactured by Sigma-Aldrich Co. LLC.) and ATP (manufactured by Sigma-Aldrich Co. LLC.), which are substrates, was added thereto such that final concentrations thereof became 50 μmol/L and 100 μmol/L, respectively, and an enzyme reaction was performed by allowing to stand at 25° C. for 60 minutes.
After the reaction, the enzyme reaction was stopped by adding 15 μL of an ADP-GLO REAGENT (trade name, manufactured by PROMEGA Corporation) thereto and allowing to stand at room temperature for 60 minutes. Then, 30 μL of a KINASE DETECTION REAGENT (trade name, manufactured by PROMEGA Corporation) was added thereto, followed by allowing to stand at room temperature for 40 minutes, and ADP produced by the enzyme reaction was quantified by emission intensity.
ENVISION (trade name, manufactured by Perkin Elmer Inc.) was used for the measurement of the emission intensity.
(§1) The inhibitory activities of the compounds were evaluated using IC50 (50% inhibitory concentration). The IC50 was calculated using XLFIT (trade name, manufactured by ID Business Solutions).

[1] = molecular target: T2, GST fusion human ERK2 protein (Homo sapiens, UniProt P28482); test: ERK2 enzyme assay (2); format: biochemical; conditions: read-out: ERK2 enzyme inhibitory activity (2)
T2 construct: purchased Carna Biosciences, Inc; host or cells: E. coli expression system
T2 sequence (P28482 whole entry, the tested form may be a part): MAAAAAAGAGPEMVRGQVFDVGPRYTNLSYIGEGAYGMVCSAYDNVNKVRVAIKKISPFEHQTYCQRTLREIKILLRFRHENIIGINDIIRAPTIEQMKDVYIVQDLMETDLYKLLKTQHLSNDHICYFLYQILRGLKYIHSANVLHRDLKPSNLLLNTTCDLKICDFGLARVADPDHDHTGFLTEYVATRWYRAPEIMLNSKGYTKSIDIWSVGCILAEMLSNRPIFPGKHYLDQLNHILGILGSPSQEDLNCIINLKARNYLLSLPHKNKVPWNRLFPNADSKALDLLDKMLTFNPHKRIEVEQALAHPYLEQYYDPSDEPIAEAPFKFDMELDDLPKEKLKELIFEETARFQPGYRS
Protocol: In an ERK2 enzyme assay, GLUTATHIONE S-TRANSFERASE (GST) FUSION HUMAN ERK2 PROTEIN (manufactured by Carna Biosciences, Inc.), which was produced by using an E. coli expression system, was used.
12 μL of a reaction liquid (1.25 nmol/L ERK2, 100 mmol/L Hepes, 10 mmol/L MgCl2, 1.5 mmol/L DTT, 0.003% Brij35, pH 7.5) including ERK2 protein and a test compound having a predetermined concentration was allowed to stand at room temperature for 15 minutes. Then, 3 μL of a mixture liquid of FL-PEPTIDE8 (5-FAM-IPTSPITTTYFFFKKK-COOH) (manufactured by Caliper Life Sciences), which is substrate peptide, and ATP (manufactured by Sigma-Aldrich Co. LLC.) was added thereto such that the final concentrations thereof became 4.25 μmol/L and 1 mmol/L, respectively, and an enzyme reaction was performed by allowing to stand at 25° C. for 120 minutes.
After the reaction, the enzyme reaction was stopped by adding 30 μL of a reaction stopper liquid (100 mmol/L HEPES, 11.2 mmol/L EDTA, 5.6% Brij35, pH 7.5) including a 0.5% COATING REAGENT 8 (trade name, manufactured by Perkin Elmer Inc.) thereto. Then, phosphorylated peptide and non-phosphorylated peptide were separated using LABCHIP EZ READER (trade name, manufactured by Caliper Life Sciences), and the porportion of the phosphorylated peptide was quantified.
as §1

| IC50 (human PI3Kα protein) [nM] | IC50 [1] [nM] | IC50 ([1]; ERK2 enzyme assay (2)) [nM] | Compound |
| --- | --- | --- | --- |
| < 1000 | < 1000 |  | COCCNc1nn(C)cc1-c1cnc2ccc(Nc3cc(C(C)C)cnn3)nc2c1 [Example 0946] |
| < 1000 |  | < 1000 | Cc1nn(C)cc1-c1cnc2ccc(Nc3cc(C4CCC4)cnn3)nc2c1 [Example 0791] |
| < 1000 |  | < 1000 | CCOc1cnnc(Nc2ccc3ncc(-c4cnn(C)c4)cc3n2)c1 [Example 0499] |
| < 1000 |  | < 1000 | CC(C)c1cnnc(Nc2ccc3ncc(-c4cnn(CCCCl)c4)cc3n2)c1 [Example 0468] |
| < 1000 |  | < 1000 | CC(=O)N1CCC(Cn2cc(-c3cnc4ccc(Nc5cc(C(C)C)cnn5)nc4c3)cn2)CC1 [Example 0528, 1-(4-((4-(6-((5-Isopropylpyridazin-3-yl)amino)-1,5-naphthyridin-3-yl)-1H-pyrazol-1-yl)methyl)piperidin-1-yl)ethanone] |
| < 1000 |  | < 1000 | CC(C)c1cnnc(Nc2ccc3ncc(N4CC(F)(F)C4)cc3n2)c1 [Example 0854] |
| < 1000 |  | < 1000 | CC(C)c1cnnc(Nc2ccc3ncc(N4CCOC[C@H]4C)cc3n2)c1 [Example 0762, (R)-N-(5-isopropylpyridazin-3-yl)-7-(3-methylmorpholino)-1,5-naphthyridine-2-amine] |
| 1000 to 10000 |  | < 1000 | CC(C)c1cnnc(Nc2ccc3ncc(C4=CCNCC4)cc3n2)c1 [Example 0881, N-(5-isopropylpyridazin-3-yl)-7-(1,2,3,6-tetrahydropyridin-4-yl)-1,5-naphthyridine-2-amine] |
| < 1000 |  | < 1000 | Cc1cn(-c2cnc3ccc(Nc4cc(C(C)C)cnn4)nc3c2)cn1 [Example 0494, N-(5-isopropylpyridazin-3-yl)-7-(4-methyl-1H-imidazol-1-yl)-1,5-naphthyridine-2-amine] |
| < 1000 |  | < 1000 | CC(C)c1cnnc(Nc2ccc3ncc(-c4cnn(CC(=O)N5CCOCC5)c4)cc3n2)c1 [Example 0558] |
| < 1000 |  | < 1000 | CC(C)c1cnnc(Nc2ccc3ncc(-c4cn(C)nc4/C=C/c4cccnc4)cc3n2)c1 [Example 0807] |
| < 1000 |  | < 1000 | Cn1cc(-c2cnc3ccc(Nc4cc(C5(C)CC5)cnn4)nc3c2)cn1 [Example 0633] |
| < 1000 |  | < 1000 | CNc1nn(C)cc1-c1cnc2ccc(Nc3cc(C(C)C)cnn3)nc2c1 [Example 0683, N-(5-isopropylpyridazin-3-yl)-7-(1-methyl-3-(methylamino)-1H-pyrazol-4-yl)-1,5-naphthyridine-2-amine hydrochloride] |
| < 1000 |  | < 1000 | COCCOC(CN1CCOCC1)Cn1cc(-c2cnc3ccc(Nc4cc(C(C)C)cnn4)nc3c2)cn1 (stereo not drawn) [Example 0744] |
| < 1000 | < 1000 |  | Cc1nn(C)cc1-c1cnc2ccc(Nc3cc(C(C)(C)C)cnn3)nc2c1 [Example 0917] |
| < 1000 |  | < 1000 | Cn1cc(-c2cnc3ccc(Nc4cc(C5CC5)cnn4)nc3c2)cn1 [Example 0564] |
| < 1000 |  | < 1000 | Cc1nn(C)cc1-c1cnc2ccc(Nc3cc(CC(C)C)cnn3)nc2c1 [Example 0790] |
| < 1000 |  | < 1000 | COCC(C)(C)c1cnnc(Nc2ccc3ncc(-c4cnn(C)c4)cc3n2)c1 [Example 0562] |

| IC50 (human PI3Kα protein) [nM] | IC50 [1] [nM] | IC50 ([1]; ERK2 enzyme assay (2)) [nM] | Compound |
| --- | --- | --- | --- |
| < 1000 |  | < 1000 | CC(C)c1cnnc(Nc2ccc3ncc(-c4cnn(CCN5C[C@H](C)O[C@@H](C)C5)c4)cc3n2)c1 [Example 0616, 7-(1-(2-((2S,6S)-2,6-dimethylmorpholino)ethyl)-1H-pyrazol-4-yl)-N-(5-isopropylpyridazin-3-yl)-1,5-naphthyridine-2-amine] |
| < 1000 |  | < 1000 | CC(C)c1cnnc(Nc2ccc3ncc(N4CC(OCCF)C4)cc3n2)c1 [Example 0864] |
| < 1000 | < 1000 |  | COC1CN(c2nn(C)cc2-c2cnc3ccc(Nc4cc(C(C)C)cnn4)nc3c2)C1 [Example 0930] |
| < 1000 |  | < 1000 | CC(C)c1cnnc(Nc2ccc3ncc(-c4cnn(CCCN(C)CC(=O)O)c4)cc3n2)c1 [Example 0667, 2-((3-(4-(6-((5-isopropylpyridazin-3-yl)amino)-1,5-naphthyridin-3-yl)-1H-pyrazol-1-yl)propyl) (methyl)amino)acetic acid] |
| 1000 to 10000 | < 1000 |  | CC(C)c1cnnc(Nc2ccc3ncc(C4=CCNC4)cc3n2)c1 [Example 0906, 7-(2,5-Dihydro-1H-pyrrol-3-yl)-N-(5-isopropylpyridazin-3-yl)-1,5-naphthyridine-2-amine] |
| < 1000 |  | < 1000 | CC(C)N1CC(OCCn2cc(-c3cnc4ccc(Nc5cc(CC6CCCCC6)cnn5)nc4c3)cn2)C1 [Example 0819] |
| 1000 to 10000 |  | < 1000 | Cn1cc(-c2cnc3ccc(Nc4cc(N5CCCC5)cnn4)nc3c2)cn1 [Example 0520] |
| < 1000 | < 1000 |  | CC(C)c1cnnc(Nc2ccc3ncc(-c4cn(C)nc4Br)cc3n2)c1 [Example 0931] |
| < 1000 |  | < 1000 | CC(C)c1cnnc(Nc2ccc3ncc(-c4cnn(CCC5CCNCC5)c4)cc3n2)c1 [Example 0488, hydrochloric acid salt of N-(5-isopropylpyridazin-3-yl)-7-(1-(2-(piperidin-4-yl)ethyl)-1H-pyrazol-4-yl)-1,5-naphthyridine-2-amine] |
| 1000 to 10000 |  | < 1000 | CC(C)c1cnnc(Nc2ccc3ncc(-c4cccnc4O)cc3n2)c1 [Example 0593] |
| < 1000 |  | < 1000 | CC(C)c1cnnc(Nc2ccc3ncc(-c4cnn(CC5CCN(C(=O)C6CC6)CC5)c4)cc3n2)c1 [Example 0534] |
| < 1000 |  | < 1000 | CC(C)c1cnnc(Nc2ccc3ncc(-c4cn(C)nc4Nc4ccccc4)cc3n2)c1 [Example 0829] |
| < 1000 |  | < 1000 | CC(C)c1cnnc(Nc2ccc3ncc(-c4cnn(CCOC5CN(CC(F)F)C5)c4)cc3n2)c1 [Example 0747, 7-(1-(2-((1-(2,2-difluoroethyl)azetidin-3-yl)oxy)ethyl)-1H-pyrazol-4-yl)-N-(5-isopropylpyridazin-3-yl)-1,5-naphthyridine-2-amine] |
| < 1000 |  | < 1000 | CC(C)c1cnnc(Nc2ccc3ncc(-c4cnn(Cc5ccc([N+](=O)[O-])cc5)c4)cc3n2)c1 [Example 0716] |
| < 1000 |  | < 1000 | Cc1cncc(-c2nn(C)cc2-c2cnc3ccc(Nc4cc(C(C)C)cnn4)nc3c2)c1 [Example 0555] |
| < 1000 |  | < 1000 | CC(C)c1cnnc(Nc2ccc3ncc(-c4cn(C)nc4COC4CN(C(=O)OC(C)(C)C)C4)cc3n2)c1 [Example 0821, tert-Butyl 3-((4-(6-((5-isopropylpyridazin-3-yl)amino)-1,5-naphthyridin-3-yl)-1-methyl-1H-pyrazol-3-yl)methoxy)azetidine-1-carboxylate] |
| < 1000 |  | < 1000 | COCC(C)c1cnnc(Nc2ccc3ncc(-c4cnn(C)c4)cc3n2)c1 (stereo not drawn) [Example 0788, N-(5-(1-methoxypropan-2-yl)pyridazin-3-yl)-7-(1-methyl-1H-pyrazol-4-yl)-1,5-naphthyridine-2-amine] |
| < 1000 |  | < 1000 | CC(C)CC(=O)N1CCC(Cn2cc(-c3cnc4ccc(Nc5cc(C(C)C)cnn5)nc4c3)cn2)CC1 [Example 0535] |
